# Experimental data from PMC3174134, “Lucanthone and Its Derivative Hycanthone Inhibit Apurinic Endonuclease-1 (APE1) by Direct Protein Binding” (PLoS ONE, 2011).
# Biological target: APE1 (Homo sapiens, UniProt P27695)
# Assay: APE1 cleavage in whole cell extracts of U251 1-5 APE1 overexpressor clone, Western blot with protease inhibitor cocktail
# Design: the full length APE1 protein was successfully expressed and purified; made in house; host or cells: E. coli BL21/DE3
# Details: U251 1-5 whole cell extracts, 2 h, 37°C
# Experimental: Total purified protein concentration was determined by the ratio of A280/A260. 250 ng of APE1 treated with lucanthone or hycanthone (0.05–100 µM) for 2 h at 37°C in final volume of 30 µl were mixed with an equal volume of gel loading buffer (0.001% bromophenol blue, 4% SDS, 10% 2-ME, 20% glycerol, and 125 mM Tris pH 6.8) and denatured at 95°C for 5 min. Total protein concentration in cell extracts was determined using the Bradford assay (BioRad, Hercules, CA) and 25 µg of total protein from soluble or insoluble cell fractions were mixed with an equal volume of gel loading buffer (0.001% bromophenol blue, 4% SDS, 10% 2-ME, 20% glycerol, and 125 mM Tris pH 6.8) and denatured at 95°C for 5 min. This mixture was separated by SDS-PAGE (4% stacking, 7.5% resolving gel) for 2–3 h at 40 mA on a BioRad MiniPROTEAN II Electrophoresis Cell. To detect proteins, proteins were transferred onto a trans-Blot nitrocellulose membrane (0.45 µm; BioRad) overnight at 4°C at 15 mA in standard Tris-Glycine buffer containing 20% ethanol. […] Chemi-luminescence was developed using an ECL kit according to the manufacturer's instructions and detected by exposing the blot to HyperfilmECL for 30 s–3 min. […]
# Sequence of APE1 (P27695 whole entry): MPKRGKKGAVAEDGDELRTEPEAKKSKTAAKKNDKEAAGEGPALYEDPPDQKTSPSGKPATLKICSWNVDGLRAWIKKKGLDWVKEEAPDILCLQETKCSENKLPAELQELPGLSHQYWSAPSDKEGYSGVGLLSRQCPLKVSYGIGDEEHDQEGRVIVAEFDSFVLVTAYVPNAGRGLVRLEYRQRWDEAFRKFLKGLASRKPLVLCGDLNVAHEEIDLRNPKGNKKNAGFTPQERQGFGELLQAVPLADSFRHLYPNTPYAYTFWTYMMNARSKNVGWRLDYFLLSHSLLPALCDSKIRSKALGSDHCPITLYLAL
structure (smiles),measurement,value
"CCN(CC)CCNc1ccc(C)c2sc3ccccc3c(=O)c12 [lucanthone, 1-[2-diethylaminoethylamino]-4-methylthioxanthen-9-one]",Concentration causing cleavage of APE1,50 µM
